Experiment [1] has as its target T1, hCB2 (Homo sapiens, UniProt P34972).
T1 construct: expressed in transfected cells; host or cells: HEK Flp-in
The experiment can be described thus: Radioligand competition binding with [3H]-CP 55,940 on hCB2-expressing HEK membranes. The settings on record: for inhibition at 10 µM: 1 h, read-out: CB2 binding extent at 10 μM (%) (±SEM). On the technique in general: Loss of bound radioactivity is the signal in a displacement assay; it reports binding, not function.

The next experiment concerns the target T2, hCB1 (Homo sapiens, UniProt P21554).
T2 construct: expressed in transfected cells; host or cells: HEK (membranes)
The experiment can be described thus: Radioligand competition binding screen with [3H]-CP 55,940 on hCB1-expressing HEK membranes. As to conditions: for CB2 selectivity over CB1 (in words): from CB1 binding at 10 μM versus CB2 affinity.

The target in experiment [2] is T1, hCB2. Put plainly: hCB2 internalisation assay (immunocytochemistry of surface receptor), HEK Flp-in hCB2 cells. As to conditions: for logR [log(τ/KA)] (±SEM) Internalisation: operational model transduction ratio. Further details: Emax: dose or concentration left out as unconfirmed. Type of experiment: cell-based.
Experiment [3] concerns the target T1, hCB2. The experiment can be described thus: Real-time CAMYEL BRET cAMP assay, forskolin-stimulated HEK Flp-in hCB2 cells. Type of experiment: cell-based. The settings on record: for logR [log(τ/KA)] (±SEM) cAMP: operational model transduction ratio; for cAMP (5 min) Emax (±SEM): change relative to forskolin alone (100%), vehicle 0%, 10 and 14 approximate. Here is the method: Cellular cAMP levels were measured using a real-time BRET biosensor (CAMYEL) as previously described ([Cawston et al., 2013]). In brief, cells were seeded in 10 cm dishes one day prior to transfection. The medium was then replaced and cells transfected with 5 μg of pcDNA3L-His-CAMYEL (ATCC, Manassas, VA, United States) using linear PEI (MW 25 kDa; Polysciences, Warrington, PA, United States) with a DNA:PEI ratio of 1:6. Approximately 24 h after transfection, cells were trypsinised and re-plated in poly-D-lysine treated white 96-well plates (Corning), at a density of 5–6 × 10^4 cells per well. For experiments involving pertussis toxin (PTX; Sigma-Aldrich) pre-treatment, cells were seeded in half the usual volume of medium, and then ∼5 h later, 2× concentrated PTX or vehicle (50% glycerol, […] Tris–HCl pH 7.5, 10 mM glycine, 500 mM NaCl) were prepared in medium and added to the existing plating medium (giving rise to a final PTX concentration of 100 ng mL^-1). Approximately 24 h after plating (or 16–20 h after applying PTX/vehicle in experiments involving PTX treatment), cells were washed once with Hank’s Balanced Salt Solution (HBSS, Thermo Fisher Scientific, catalogue #14025-134), and then equilibrated for 30 min in HBSS supplemented with 1 mg mL^-1 BSA. Coelenterazine h (final concentration 5 μM; NanoLight Technologies, Pinetop, AZ, United States) was added to each well and incubated for 5 min. Forskolin was added (final concentration 5 μM) and incubated for 6 min (allowing enough time for the induced cAMP increase to plateau), prior to vehicle/drug addition. All drugs and reagents were prepared in HBSS supplemented with 1 mg mL^-1 BSA. SR 144528 was a generous gift from Roche (Basel, Switzerland).
Assays were carried out in technical duplicate. Emissions were detected at 460 nm (Rluc) and 535 nm (YFP) with either a LUMIstar® Omega luminometer (BMG Labtech, Ortenberg, Germany) or CLARIOstar® (BMG Labtech). BRET ratios (535 nm emissions/460 nm emissions, where an increase in ratio corresponds to a decrease in cAMP) were normalised to pre-forskolin reads (i.e., with coelenterazine h present) to remove any variability present prior to addition of forskolin and drug/vehicle. A Lowess curve (GraphPad Prism) was fitted to individual technical replicates within an assay so that cAMP signalling data could be extrapolated from any time point as opposed to only those that were empirically measured (typically every 30–60 s). Data were normalised to matched vehicle (0%) and forskolin (100%) treatments, allowing compilation of data from independent experiments.

Experiment [4] deals with T1, hCB2. Put plainly: pERK AlphaLISA assay, HEK Flp-in hCB2 cells. The settings on record: for logR [log(τ/KA)] (±SEM) pERK: operational model transduction ratio; for Emax: read-out: pERK (4 min) Emax (±SEM); for Time of maximal pERK response: time course experiment. The class given is cell-based. (In general: Alpha assays give light when donor and acceptor beads are brought close together.)

Experiment [5] has as its target T1, hCB2. Put plainly: Comparison of efficacy/potency and operational-model bias analysis between hCB2 pathways, reference CP 55,940. The class given is cell-based. The settings on record: for Internalisation – pERK Bias factor / cAMP – internalisation Bias factor / cAMP – pERK Bias factor: 10^ΔΔlogR; for Internalisation – pERK Bias factor / cAMP – internalisation Bias factor / cAMP – pERK Bias factor / Between-pathway signalling bias (in words): relative to CP 55,940; for Internalisation – pERK ΔΔlogR (±SEM) / cAMP – internalisation ΔΔlogR (±SEM) / cAMP – pERK ΔΔlogR (±SEM): relative to reference ligand CP 55,940.

The subject of the next experiment is CB2. Further details: method as in Yrjölä et al., 2015. As to conditions: ref Yrjölä et al., 2015; cited from earlier work.
The subject of the next experiment is HEK Flp-in wt cells. The experiment can be described thus: CAMYEL cAMP assay in HEK Flp-in wt cells (non-hCB2-mediated effects). The class given is cell-based, human.
[6] abbreviates: 10 μM compound, displacement of 0.5 nM [3H]-CP 55,940.
Where [7] appears, read: heterologous competition vs [3H]-CP 55,940, read-out: CB2 pKi (±SEM) (converted).
[8] abbreviates: 5 min post-drug, 5 μM forskolin, 10 and 14 approximate (non-hCB2-mediated effects), read-out: cAMP (5 min) pEC50 (±SEM) (converted).
[9] abbreviates: 5 min post-drug, 5 μM forskolin.
The mark [10] stands for this setting: 4 min stimulation, 14 approximate (low potency), read-out: pERK (4 min) pEC50 (±SEM) (converted).

Where two headings read alike, the source gives them in different places. Marks after values point to notes of the source that are not given here.

Here are results for three compounds from PMC6256112, “Cannabinoid Receptor 2 Signalling Bias Elicited by 2,4,6-Trisubstituted 1,3,5-Triazines” (Frontiers in Pharmacology, 2018).

T1 sequence (P34972 whole entry): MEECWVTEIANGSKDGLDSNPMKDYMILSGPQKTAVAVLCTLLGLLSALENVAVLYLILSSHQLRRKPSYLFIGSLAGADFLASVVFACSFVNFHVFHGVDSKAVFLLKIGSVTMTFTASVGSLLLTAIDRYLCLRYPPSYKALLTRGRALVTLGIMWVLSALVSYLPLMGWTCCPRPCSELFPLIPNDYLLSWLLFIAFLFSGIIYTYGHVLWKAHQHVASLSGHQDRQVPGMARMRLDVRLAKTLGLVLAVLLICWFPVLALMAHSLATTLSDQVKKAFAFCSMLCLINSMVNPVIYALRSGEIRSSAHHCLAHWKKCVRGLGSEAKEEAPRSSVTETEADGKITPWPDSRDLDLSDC
T2 sequence (P21554 whole entry): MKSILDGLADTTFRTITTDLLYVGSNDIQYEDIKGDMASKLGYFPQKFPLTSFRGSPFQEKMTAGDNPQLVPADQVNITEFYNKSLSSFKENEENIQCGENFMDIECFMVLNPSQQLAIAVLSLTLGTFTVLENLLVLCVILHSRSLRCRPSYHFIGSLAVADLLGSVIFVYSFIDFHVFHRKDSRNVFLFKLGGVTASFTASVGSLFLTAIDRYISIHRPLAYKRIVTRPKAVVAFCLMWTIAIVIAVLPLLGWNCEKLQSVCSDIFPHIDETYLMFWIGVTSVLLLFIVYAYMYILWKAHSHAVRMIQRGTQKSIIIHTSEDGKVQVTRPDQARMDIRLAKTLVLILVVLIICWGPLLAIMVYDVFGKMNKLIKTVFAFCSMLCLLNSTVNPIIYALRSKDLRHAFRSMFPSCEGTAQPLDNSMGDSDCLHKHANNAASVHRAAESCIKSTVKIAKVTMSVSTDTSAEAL

Consider `CCOc1nc(NC23CC4CC(CC(C4)C2)C3)nc(N2CCN(C)CC2)n1` [Compound 15, N-(Adamantan-1-yl)-4-ethoxy-6-(4-methylpiperazin-1-yl)-1,3,5-triazin-2-amine], for which, at hCB2 [1], the Ki is 4.27 nM and the inhibition at 10 µM turned out to be 92.9%. In addition, at hCB1, the “CB2 selectivity over CB1 (in words)” value was “somewhat CB2-selective”. At hCB2 [2], the EC50 is 1.23 nM and the “logR [log(τ/KA)] (±SEM) Internalisation” value is 8.92 (0.09). The Emax at hCB2 [2] (read-out: Internalisation (1 h) Emax (±SEM)) was -56.5%. At hCB2 [3], the EC50 is 7.94 nM and the “logR [log(τ/KA)] (±SEM) cAMP” value was 8.12 (0.09). Also, the Emax at hCB2 [3] (read-out: cAMP (5 min) Emax (±SEM)) was -39.6%. At hCB2 [4], the EC50 is 35.5 nM, the “logR [log(τ/KA)] (±SEM) pERK” value is 7.45 (0.10), the Emax was 9.96% and the “Time of maximal pERK response” value is recorded as 4 min. In addition, the “Behaviour in pERK pathway (in words)” value on hCB2 [4] (4 min) was “equivalent efficacies to CP 55,940”. Moreover, on hCB2 [5], the “Internalisation – pERK Bias factor” value stood at 5.7, the “cAMP – internalisation Bias factor” value is reported as 0.3, the “cAMP – pERK Bias factor” value is listed as 1.6 and the “Between-pathway signalling bias (in words)” value is reported as “biased towards internalisation”. Further, at hCB2 [5], the “Internalisation – pERK ΔΔlogR (±SEM)” value is 0.76 (0.15)*, the “cAMP – internalisation ΔΔlogR (±SEM)” value was “–0.56 (0.15)” and the “cAMP – pERK ΔΔlogR (±SEM)” value is recorded as 0.20 (0.13). In the experiment on CB2, the “Functional GTPγS selectivity for CB2 versus CB1” value is 1000 to 10,000 fold and the “GTPγS functional behaviour (in words)” value is on record as “full agonist”.
With `CCOc1nc(NC23CC4CC(CC(C4)C2)C3)nc(N2CCN(CCOCCOCCNC(=O)OC(C)(C)C)CC2)n1` [Compound 10, tert-Butyl N-(2-(2-(2-(4-(4-((Adamantan-1-yl)Amino)-6-Ethoxy-1,3,5-Triazin-2-yl)Piperazin-1-yl)Ethoxy) Ethoxy)Ethyl)Carbamate], the inhibition at 10 µM at hCB2 [1] (setting [6]) amounted to 91.8%. Moreover, the “Reduction in hCB2 binding affinity compared to 15” value on hCB2 [1] (compared to methylpiperazinyl-15) was 2–3 log units. At hCB2 [1] (setting [7]), the Ki was 661 nM. Further, the “CB1 binding extent at 10 μM (%) (±SEM)” value on hCB1 (10 μM compound, displacement of 0.75 nM [3H]-CP 55,940) is 16.7 (7.8) %. On hCB1, the “CB2 selectivity over CB1 (in words)” value is reported as “likely also CB2-selective”. Further, the EC50 on hCB2 [2] (1 h stimulation) was 89.1 nM. In addition, at hCB2 [2], the “logR [log(τ/KA)] (±SEM) Internalisation” value was 7.09 (0.10). Further, on hCB2 [3] (5 μM forskolin), the “Behaviour in cAMP pathway (in words)” value is given as “partial agonists”. In addition, the EC50 at hCB2 [3] (setting [8]) is 105 nM. The “cAMP (5 min) Emax (±SEM)” value on hCB2 [3] (setting [9]) is “–33.0 (0.9)^Δ %”. Also, the “logR [log(τ/KA)] (±SEM) cAMP” value at hCB2 [3] is recorded as 6.90 (0.10). Besides, the “Non-hCB2-mediated cAMP effects: fold less potent than cAMP inhibition in hCB2-expressing cells” value in the experiment with HEK Flp-in wt cells (HEK Flp-in wt versus HEK Flp-in hCB2) is about 23 fold. Also, the “Behaviour in pERK pathway (in words)” value on hCB2 [4] (4 min) is “equivalent efficacies to CP 55,940”. Moreover, the Emax at hCB2 [4] (4 min, response above vehicle, normalised to U0126 (0%) and PMA (100%), for 14 efficacy at 10 μM) stood at 10.2%. The EC50 at hCB2 [4] (setting [10]) is 1070 nM. For the same compound, on hCB2 [4], the “logR [log(τ/KA)] (±SEM) pERK” value is reported as 6.06 (0.02) and the “Time of maximal pERK response” value is 4 min. Also, at hCB2 [5], the “Internalisation – pERK Bias factor” value turned out to be 2.0, the “cAMP – internalisation Bias factor” value is given as 1.2, the “cAMP – pERK Bias factor” value was determined as 2.4 and the “Between-pathway signalling bias (in words)” value is recorded as “did not demonstrate any indication of between-pathway bias”. Also, at hCB2 [5], the “Internalisation – pERK ΔΔlogR (±SEM)” value is 0.31 (0.13), the “cAMP – internalisation ΔΔlogR (±SEM)” value is reported as 0.07 (0.16) and the “cAMP – pERK ΔΔlogR (±SEM)” value is 0.37 (0.10).
`CCOc1nc(NC23CC4CC(CC(C4)C2)C3)nc(N2CCN(CCF)CC2)n1` [Compound 16, N-(adamantan-1-yl)-4-et hoxy-6-(4-(2-fluoroethyl)piperazin-1-yl)-1,3,5-triazin-2-amine]: the inhibition at 10 µM at hCB2 [1] (setting [6]) amounted to 95.6%. In addition, the Ki at hCB2 [1] (setting [7]) was 1.62 nM. Also, the “CB2 selectivity over CB1 (in words)” value on hCB1 was “somewhat CB2-selective”. For the same compound, on hCB2 [2] (1 h stimulation), the “Behaviour in internalisation pathway (in words)” value is listed as “significantly less efficacious” and the EC50 is 1.2 nM. Moreover, on hCB2 [2], the “logR [log(τ/KA)] (±SEM) Internalisation” value is recorded as 8.90 (0.19). Moreover, the EC50 at hCB2 [3] (setting [8]) is 2.82 nM. In addition, on hCB2 [3] (setting [9]), the “cAMP (5 min) Emax (±SEM)” value was “–35.6 (2.2) %”. For the same compound, the “logR [log(τ/KA)] (±SEM) cAMP” value at hCB2 [3] is on record as 8.52 (0.19). The “Non-hCB2-mediated effects on cAMP (in words)” value in the experiment with HEK Flp-in wt cells (HEK Flp-in wt) is “most pronounced effects”. Moreover, on hCB2 [4] (setting [10]), the EC50 was 12.3 nM. Further, on hCB2 [4], the “logR [log(τ/KA)] (±SEM) pERK” value was 7.84 (0.07) and the “Time of maximal pERK response” value was 4 min. For the same compound, on hCB2 [5], the “Efficacy relative to maximal efficacy measured across all compounds, all three pathways” value was about 80%; the “Internalisation – pERK Bias factor” value is listed as 2.2; the “cAMP – internalisation Bias factor” value stood at 0.7; the “cAMP – pERK Bias factor” value is reported as 1.6. In addition, on hCB2 [5], the “Between-pathway signalling bias (in words)” value was “did not demonstrate any indication of between-pathway bias”, the “Internalisation – pERK ΔΔlogR (±SEM)” value was 0.35 (0.13), the “cAMP – internalisation ΔΔlogR (±SEM)” value is listed as “–0.14 (0.22)” and the “cAMP – pERK ΔΔlogR (±SEM)” value is listed as 0.21 (0.20). For the same compound, on hCB2 [5] (read-out: Efficacy relative to maximal efficacy measured across all compounds, all three pathways, internalisation, cAMP and pERK), the Emax was in the range of 75 to 80%. Also, in the experiment with CB2, the “Functional GTPγS selectivity for CB2 versus CB1” value is recorded as 1000 to 10,000 fold and the “GTPγS activity, % of maximum measured activity” value is recorded as about 70%.
